5 compounds from patent US20160000126A1, “MODULATION OF SALTY TASTE […] ALTERING THE FUNCTION OF BITTER- OR PKD2L1-[…] RECEPTOR CELLS” (THE TRUSTEES OF COLUMBIA UNIVERSITY IN THE CITY OF NEW YORK, priority 2013, published 2016) can be followed below.

Experiment [1] concerns T2R32-Sapphire positive taste cells. The experiment can be described thus: calcium imaging of fungiform taste receptor cells. The experiment is classed as cell-based. The conditions noted are these: T2R32-Sapphire mice; for response of T2R32-Sapphire positive taste cells to stimulus: 500 mM KCl (high-salt), 100 mM citric acid (sour). How it is done:
Calcium imaging from fungiform TRCs was performed as previously described (Chandrashekar et al. (2010); Oka et al. (2006)).
Fungiform TRCs were loaded in vivo with Calcium Green-1 dextran 3 kD (Invitrogen) by electroporating individual taste buds. Tongues were removed 24-36 hours after dye loading, and the epithelium was peeled enzymatically and placed in a custom recording chamber. The apical surface of the preparation was bathed in a constant flow of artificial saliva, and taste stimuli were delivered by focal application to individual taste buds. Tastants were applied for 1 second, with a minimum of 10 seconds of artificial saliva between stimuli. Changes in [Ca2+]i were monitored using a 5-Live confocal microscope (Zeiss) equipped with a ×40 C-Apochromat 1.20 W objective; images were captured at 4 Hz, and ΔF/F from individual TRCs analyzed and pseudo-colored as described previously (Chandrashekar et al. (2010)).
To identify sapphire positive cells in T2R32-Sapphire mice, 405-nm excitation laser to separate sapphire and Calcium Green-1 fluorescence was used. Mean cellular fluorescence intensity (F) was calculated for the individual TRCs and basal fluorescence (Fo) was assigned to each cell by averaging fluorescence intensity over 3 seconds just before tastant application. ΔF/F was calculated as [F−Fo]/Fo; taste cells were considered responders when ΔF/F exceeded 3 standard deviations above Fo within 5 seconds of tastant application.

The subject of experiment [2] is tongue carbonic anhydrases. Nature of the experiment: chorda tympani nerve recordings before and after DZA treatment of the tongue. The experiment is classed as in vivo, mice.
The subject of experiment [3] is bitter taste receptor cells / high-salt sensing pathway. The experiment can be described thus: chorda tympani nerve recordings before and after AITC application to the tongue. The experiment is classed as in vivo, mice. How it is done: Lingual stimulation and recording procedures were performed as previously described (Chandrashekar et al. (2010); Nelson et al. (2002)). Data analysis used the integrated response during the 5 seconds of tastant stimulation.
Responses to 20 mM citric acid (FIGS. 2 and 3), 60 mM NaCl (FIG. 8, 12, and 13), or 250 mM KCl before AITC application (FIG. 13) were used to normalize responses for each experimental series. For FIG. 7, data were normalized to 20 mM citric acid and then scaled to WT responses before AITC application. Data were analyzed for statistical significance using an unpaired, one-tailed Student's t-test and 95% confidence limits.
To compute the amiloride-sensitive salt component, the stimulation regime involved sequential applications of NaCl solutions first without, and then with, amiloride (5 seconds pre- or pre- and post-incubation and co-application with NaCl solution) in the same experimental series. The amiloride-insensitive component was defined as the response in the presence of amiloride. The fraction of the response inhibited by amiloride was defined as the amiloride-sensitive component (amiloride-sensitive component=response without amiloride−response with amiloride).
For pharmacological inhibition studies using allyl isothiocyanate (AITC), responses to a series of taste stimuli were measured. Then 3 mM AITC (Aldrich, 377430-5G) was applied to the tongue at a rate of 6 ml/minute for 5 minutes. The tongue was washed with artificial saliva for 1 minute and nerve responses to the same series of taste stimuli measured. Responses before and after AITC were compared for each animal. To minimize effects of recovery, responses after AITC were recorded within 15 minutes of AITC treatment.

For another experiment, the target named is CA4 (Mus musculus, UniProt Q64444). Conditions: TRPM5-KO mice; before and after addition of 30 mM KHCO3 (pH7.4).
Setting [4] is: control and T2R-PLC rescue animals, AITC treatment.

Chain of CA4 (Q64444 18-277): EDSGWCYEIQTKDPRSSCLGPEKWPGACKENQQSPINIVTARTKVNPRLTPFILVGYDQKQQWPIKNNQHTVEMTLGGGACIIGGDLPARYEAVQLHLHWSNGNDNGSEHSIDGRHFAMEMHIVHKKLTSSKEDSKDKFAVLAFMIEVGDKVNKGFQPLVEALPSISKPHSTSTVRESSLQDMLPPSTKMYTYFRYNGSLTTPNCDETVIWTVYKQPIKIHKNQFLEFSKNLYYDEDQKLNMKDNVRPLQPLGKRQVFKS

Take `O=C(O)CC(O)(CC(=O)O)C(=O)O` [citric acid]: the “response of T2R32-Sapphire positive taste cells to stimulus” value in experiment [1] is reported as “not”.

With `CCN[C@H]1C[C@H](C)S(=O)(=O)c2sc(S(N)(=O)=O)cc21` [DZA, dorzolamide], in experiment [2] (PKD2L1-TeNT mice, various salts, 0.5% w/v DZA), the “taste responses from PKD2L1-TeNT mice” value is recorded as “completely insensitive”. Also, in experiment [2] (TRPM5-KO mice, 20 mM citric acid, 60 mM NaCl, 0.5% w/v DZA), the “sour and low salt taste responses” value is “insensitive”. For the same compound, the “CO2 chorda tympani responses” value in experiment [2] (TRPM5-KO mice, 0.5% w/v DZA) is on record as “affected”. The “high-salt induced chorda tympani responses from sour taste cells” value in experiment [2] (TRPM5-KO mice, 0.5% w/v DZA for 5 minutes) is recorded as “reduced”.

As for `C=CCN=C=S` [AITC, allyl isothiocyanate], the “chorda tympani responses to high concentration of bitter tastant cycloheximide” value in experiment [3] (1 mM cycloheximide, 1 and 30 minutes after AITC treatment) is listed as “strongly suppresses”. The “chorda tympani responses to other bitter tastants” value in experiment [3] (10 mM denatonium and 10 mM quinine, after AITC treatment) was “suppressed”. Further, in experiment [3] (20 mM citric acid, after AITC treatment), the “chorda tympani response to sour taste” value was “remained unimpaired”. Further, in experiment [3] (5 minutes exposure of the tongue to 3 mM AITC), the “taste response evoked by AITC itself” value was “minimal taste response”. In addition, in experiment [3] (AITC treatment, FIG. 7), the “fraction of high-salt neural responses eliminated” value is on record as “about 50%”. Further, the “remaining high-salt (KCl) responses in PKD2L1-TeNT mice” value in experiment [3] (PKD2L1-TeNT mice, further treatment with AITC) is given as “effectively abolished”. For the same compound, the “bitter and high-salt taste responses in TRPA1-KO mice” value in experiment [3] (TRPA1-KO mice, with and without AITC) is “robust AITC-mediated suppression”. Also, in experiment [3] (TRPM5-KO and PLCβ2-KO mice, before and after AITC), the “nerve responses to high salt in TRPM5 and PLCβ2 knockout mice” value is reported as “no longer sensitive”. In experiment [3] (setting [4]), the “chorda tympani responses to 0.1 mM cycloheximide” value was “almost completely suppressed”; the “chorda tympani responses to 500 mM KCl and 500 mM NaCl in the presence of 10 μM amiloride” value is “reduced by half”. The “chorda tympani bitter responses” value in experiment [3] (wild type mice, 0.1 mM cycloheximide, after 3 mM AITC) was “completely inhibited”. For the same compound, the “chorda tympani responses to low salt” value in experiment [3] (wild type mice, 60 mM NaCl, after 3 mM AITC) was “did not affect”. Besides, in experiment [3] (wild type mice, 250 or 500 mM NaCl + amiloride and KCl, after 3 mM AITC for 5 minutes), the “chorda tympani responses to high-salt” value is on record as “significantly suppressed”. Also, the “chorda tympani responses to KCl (selectively activates the high-salt pathway)” value in experiment [3] (wild type mice, after 3 mM AITC) is given as “Identical suppression”. The “chorda tympani responses to other taste qualities” value in experiment [3] (wild type mice, sour, sweet, umami tastants, after 3 mM AITC) is “did not affect”.

As to `[Cl-].[K+]` [KCl, potassium chloride], the “number of Sapphire-positive cells activated” value in experiment [1] (500 mM KCl) is 12 cells. Besides, the “response of T2R32-Sapphire positive taste cells to stimulus” value in experiment [1] is “responded”.

For the compound `O=C(O)O` [KHCO3], at CA4, the “chorda tympani responses to 500 mM KCl or 100 mM CaCl2 (PKD2L1-cell mediated high-salt responses)” value was “strong inhibition”.
